Patent US4319028A, “7-(2-(Substituted benzoyl)amino)acetamido)cephalosporins” (Eli Lilly and Company, priority 1976, dated 1982)
≈ marks a conversion by molar mass, not a printed value. Like-named read-outs stand apart in the source and are kept apart here.

Columns and labels:
Shigella sp. = assay: Antibiotic activity (MIC), Gradient Plate in vitro method, Shigella sp.; assay type: cell-based; conditions: read-out: Minimum Inhibitory Concentration
Description: (§1) The antibiotic activity of the cephalosporin compounds of the present invention is illustrated by the data presented in Table I for representative compounds. The values in the table are the minimum inhibitory concentrations (MIC) for the test compounds against the indicated microorganisms. The MIC values were obtained in the Gradient Plate in vitro method for determining antibiotic activity.

Escherichia coli = assay: Antibiotic activity (MIC), Gradient Plate in vitro method, Escherichia coli; assay type: cell-based; conditions: read-out: Minimum Inhibitory Concentration
Description: (§2) The values in the table are the minimum inhibitory concentrations (MIC) for the test compounds against the indicated microorganisms. The MIC values were obtained in the Gradient Plate in vitro method for determining antibiotic activity.

Klebsiella pneumoniae = assay: Antibiotic activity (MIC), Gradient Plate in vitro method, Klebsiella pneumoniae; assay type: cell-based; conditions: read-out: Minimum Inhibitory Concentration
Description: as §2

Aerobacter Aerogenes = assay: Antibiotic activity (MIC), Gradient Plate in vitro method, Aerobacter Aerogenes; assay type: cell-based; conditions: Klebsiella aerogenes, read-out: Minimum Inhibitory Concentration
Description: as §2

Salmonella heidelberg = assay: Antibiotic activity (MIC), Gradient Plate in vitro method, Salmonella heidelberg; assay type: cell-based; conditions: Salmonella enterica, read-out: Minimum Inhibitory Concentration
Description: as §2

Pseudomonas Aeruginosa = assay: Antibiotic activity (MIC), Gradient Plate in vitro method, Pseudomonas Aeruginosa; assay type: cell-based; conditions: read-out: Minimum Inhibitory Concentration
Description: as §2

Serratia marcescens = assay: Antibiotic activity (MIC), Gradient Plate in vitro method, Serratia marcescens; assay type: cell-based; conditions: read-out: Minimum Inhibitory Concentration
Description: as §1

[1] = system: V41 (penicillin resistant Staphylococcus); assay: Antibiotic activity (MIC), Gradient Plate in vitro method, V41; assay type: cell-based; conditions: read-out: Minimum Inhibitory Concentration
Description: as §1
(§3) ^1 Test organisms V41, V32, and V84 are penicillin resistant

[2] = system: V32 (penicillin resistant Staphylococcus); assay: Antibiotic activity (MIC), Gradient Plate in vitro method, V32; assay type: cell-based; conditions: read-out: Minimum Inhibitory Concentration
Description: as §1, §3

[3] = system: X466 (methicillin resistant Staphylococcus); assay: Antibiotic activity (MIC), Gradient Plate in vitro method, X466; assay type: cell-based; conditions: read-out: Minimum Inhibitory Concentration
Description: as §1, with “activity. […]” for “activity.”

[4] = system: V84 (penicillin resistant Staphylococcus); assay: Antibiotic activity (MIC), Gradient Plate in vitro method, V84; assay type: cell-based; conditions: read-out: Minimum Inhibitory Concentration
Description: as §1, §3

[5] = Water solubility (inferred from low yield); assay type: physicochemical; conditions: inferred from low yield of aqueous isolation
Titration (pKa) = assay type: physicochemical; conditions: 66% dmf-34% h2o, titration (66% DMF-34% H2O)

SMILES | MIC (Shigella sp.) | MIC (Escherichia coli) | MIC (Klebsiella pneumoniae) | MIC (Aerobacter Aerogenes) | MIC (Salmonella heidelberg) | MIC (Pseudomonas Aeruginosa) | MIC (Serratia marcescens) | MIC ([1]; Staphylococcus) | MIC ([2]; Staphylococcus) | MIC [3] | MIC ([4]; Staphylococcus) | water solubility [5] | MIC ([1]; Gradient Plate in vitro, V41, penicillin resistant Staphylococcus) | MIC ([2]; Gradient Plate in vitro, V32, penicillin resistant Staphylococcus) | MIC ([4]; Gradient Plate in vitro, V84, penicillin resistant Staphylococcus) | pKa (Titration (pKa); first pKa, read-out: pKa (first value)) | pKa (Titration (pKa); second pKa, read-out: pKa (second value))
Cc1nnc(SCC2=C(C(=O)O)N3C(=O)C(NC(=O)[C@H](NC(=O)c4ccc(O)cc4)c4ccc(O)cc4)C3SC2)s1 (stereo partly drawn) [Example 12, 7-[D-[2-(4-Hydroxyphenyl)-2-[(4-hydroxybenzoyl)amino]acetyl]-amino]-3-[[(5-methyl-1,3,4-thiadiazol-2-yl)thio]methyl]-3-cephem-4-carboxylic acid] | 13.9 µg/mL (≈ 22.6 µM) | 50 µg/mL (≈ 81.5 µM) | 29.5 µg/mL (≈ 48.1 µM) | 40 µg/mL (≈ 65.2 µM) | 33 µg/mL (≈ 53.8 µM) | > 200 µg/mL | > 200 µg/mL | 1 µg/mL (≈ 1.63 µM) | 1 µg/mL (≈ 1.63 µM) | 84 µg/mL (≈ 137 µM) | 1 µg/mL (≈ 1.63 µM) | quite water soluble |  |  |  |  | 
NC(=O)OCC1=C(C(=O)O)N2C(=O)C(NC(=O)C(NC(=O)c3cccc(O)c3O)c3ccccc3)C2SC1 [Example 20, 7-[D-[2-Phenyl-2-[(2,3-dihydroxybenzoyl)amino]acetyl]-amino]-3-carbamoyloxymethyl-3-cephem-4-carboxylic acid] | 58 µg/mL (≈ 107 µM) | 74 µg/mL (≈ 136 µM) | 6.5 µg/mL (≈ 12 µM) | 76 µg/mL (≈ 140 µM) | 1 µg/mL (≈ 1.84 µM) | 140 µg/mL (≈ 258 µM) | > 200 µg/mL |  |  | > 200 µg/mL |  |  | 7.9 µg/mL (≈ 14.6 µM) | 7.4 µg/mL (≈ 13.6 µM) | 6.1 µg/mL (≈ 11.2 µM) | 5.15 | 8.7
